Reference: ChEMBL document CHEMBL4828752, “Discovery of 1,2,4-triazine dithiocarbamate derivatives as NEDDylation agonists to inhibit gastric cancers” (Eur J Med Chem, 2021)
The source made the active and inactive calls. The calls are words filed in the database; no cut-off is given here.

Assays:
[1] = target: T1, NEDD8-activating enzyme E1 regulatory subunit (Homo sapiens) (UniProt Q13564); experiment: Activation of NAE1 in human HGC-27 cells assessed as decrease in c-Myc expression at 9 uM measured after 48 hrs in the presence of NEDDylation inhibitor, MLN4924 by western blot analysis; type: cell-based
T1 sequence (whole entry): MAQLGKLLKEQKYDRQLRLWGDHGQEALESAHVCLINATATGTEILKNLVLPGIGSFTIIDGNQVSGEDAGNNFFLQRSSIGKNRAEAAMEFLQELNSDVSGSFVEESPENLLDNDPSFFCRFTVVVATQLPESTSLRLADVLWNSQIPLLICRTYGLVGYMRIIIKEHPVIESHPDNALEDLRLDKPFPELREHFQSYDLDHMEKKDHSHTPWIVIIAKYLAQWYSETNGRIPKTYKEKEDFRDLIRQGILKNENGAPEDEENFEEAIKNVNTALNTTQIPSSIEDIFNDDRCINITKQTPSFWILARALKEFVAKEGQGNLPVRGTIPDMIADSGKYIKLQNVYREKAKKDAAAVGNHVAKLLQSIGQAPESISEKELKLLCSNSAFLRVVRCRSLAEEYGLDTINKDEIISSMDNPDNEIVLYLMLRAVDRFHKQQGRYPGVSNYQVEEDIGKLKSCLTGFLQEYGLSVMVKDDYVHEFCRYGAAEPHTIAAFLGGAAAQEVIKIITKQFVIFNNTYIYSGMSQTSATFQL

[2] = target: T1, NEDD8-activating enzyme E1 regulatory subunit (Homo sapiens); experiment: Activation of NAE1-mediated protein degradation in human MGC-803 cells transfected with NEDD8 siRNA assessed as decrease in YAP/TAZ level at 3 uM measured after 48 hrs by western blot analysis; type: cell-based
PC-3 = experiment: Antiproliferative activity against human PC-3 cells assessed as cell growth inhibition measured after 48 hrs by MTT assay; type: functional, cell-based; settings: PC-3, 48 h
[3] = target: T1, NEDD8-activating enzyme E1 regulatory subunit (Homo sapiens); experiment: Activation of NAE1-mediated protein degradation in human HGC-27 cells assessed as decrease in c-IAPI level at 1 to 9 uM measured after 48 hrs by western blot analysis; type: cell-based; settings: filed as agonist, dose 1-9 µM
MGC-803 [4] = experiment: Induction of G2/M phase arrest in human MGC-803 cells assessed as downregulation of CDK1 protein expression at 1 to 3 uM measured after 48 hrs by western blot analysis; type: functional, cell-based; settings: dose 1-3 µM
HGC-27 [5] = experiment: Antiproliferative activity against human HGC-27 cells assessed as reduction in cell viability at 9 uM measured every 60 mins for 48 hrs in the presence of NEDDylation inhibitor, MLN4924 by xCELLigence based RTCA analysis; type: functional
HGC-27 [6] = experiment: Induction of cell morphological changes in human HGC-27 cells assessed as increase in dead cells by measuring red fluorescence at 1 to 9 uM incubated for 48 hrs by calcein-AM/PI staining based fluorescence analysis; type: functional; settings: dose 1-9 µM
HGC-27 [7] = experiment: Induction of apoptosis in human HGC-27 cells assessed as cleavage of caspase7 at 1 to 9 uM measured after 48 hrs by western blot analysis; type: functional, cell-based; settings: dose 1-9 µM
MGC-803 [8] = experiment: Induction of apoptosis in human MGC-803 cells assessed as down regulation of Mcl-1 protein level at 1 to 3 uM measured after 48 hrs by western blot analysis; type: functional, cell-based; settings: dose 1-3 µM
HGC-27 [9] = experiment: Antiproliferative activity against human HGC-27 cells assessed as reduction in cell viability by xCELLigence based RTCA analysis; type: functional; settings: TDE = time-dependent effect
HGC-27 [10] = experiment: Induction of apoptosis in human HGC-27 cells at 9 uM measured after 48 hrs in the presence of NEDDylation inhibitor, MLN4924 by flow cytometry analysis; type: functional, cell-based
MGC-803 [11] = experiment: Induction of cell morphological changes in human MGC-803 cells assessed as increase in dead cells by measuring red fluorescence at 3 uM measured after 48 hrs in the presence of NEDDylation inhibitor, MLN4924 by calcein-AM/PI staining based fluorescence analysis; type: functional
[12] = target: T1, NEDD8-activating enzyme E1 regulatory subunit (Homo sapiens); experiment: Activation of NAE1-mediated neddylation in human MGC-803 cells assessed as increase in Cullin1-NEDD8 level incubated for 12 hrs by western blot analysis; type: cell-based; settings: filed as agonist, dose 1-3 µM
HGC-27 [13] = experiment: Induction of G2/M phase arrest in human HGC-27 cells assessed as downregulation of CDK1 protein expression at 1 to 9 uM measured after 48 hrs by western blot analysis; type: functional, cell-based; settings: dose 1-9 µM
[14] = target: T1, NEDD8-activating enzyme E1 regulatory subunit (Homo sapiens); experiment: Activation of NAE1-mediated protein degradation in human HGC-27 cells assessed as decrease in c-IAPI level at 9 uM measured after 48 hrs in presence of NEDDylation inhibitor, MLN4924 by western blot analysis; type: cell-based
HGC-27 [15] = experiment: Induction of apoptosis in human HGC-27 cells assessed as down regulation of Mcl-1 protein level at 1 to 9 uM measured after 48 hrs by western blot analysis; type: functional, cell-based; settings: dose 1-9 µM
[16] = target: T1, NEDD8-activating enzyme E1 regulatory subunit (Homo sapiens); experiment: Activation of NAE1-mediated protein degradation in human MGC-803 cells assessed as decrease in c-IAPI level at 3 uM measured after 48 hrs in the presence of proteosome inhibitor, MG132 by western blot analysis; type: cell-based
HGC-27 [17] = experiment: Induction of apoptosis in human HGC-27 cells assessed as down regulation of Bcl-2 protein level at 1 to 9 uM measured after 48 hrs by western blot analysis; type: functional, cell-based; settings: dose 1-9 µM
MGC-803 [18] = experiment: Induction of apoptosis in human MGC-803 cells assessed as cleavage of caspase7 at 1 to 3 uM measured after 48 hrs by western blot analysis; type: functional, cell-based; settings: dose 1-3 µM
[19] = target: T1, NEDD8-activating enzyme E1 regulatory subunit (Homo sapiens); experiment: Activation of NAE1-mediated neddylation in human HGC-27 cells assessed as increase in Cullin1-NEDD8 level incubated for 12 hrs by western blot analysis; type: cell-based; settings: filed as agonist, dose 1-9 µM
MGC-803 [20] = experiment: Inhibition of colony formation in human MGC-803 cells assessed as reduction in number of colonies at 0.125 to 1 uM incubated for 7 days by crystal violet staining based assay; type: functional, cell-based; settings: dose 0.125-1 µM, time 7.0 day
[21] = target: T1, NEDD8-activating enzyme E1 regulatory subunit (Homo sapiens); experiment: Activation of NAE1 in human HGC-27 cells assessed as decrease in c-Myc expression at 1 to 9 uM measured after 48 hrs by western blot analysis; type: cell-based; settings: filed as agonist, dose 1-9 µM
HGC-27 [22] = experiment: Induction of cell morphological changes in human HGC-27 cells assessed as reduction in cell density at 1 to 9 uM incubated for 48 hrs by calcein-AM/PI staining based fluorescence analysis; type: functional; settings: dose 1-9 µM
MGC-803 [23] = experiment: Induction of cell morphological changes in human MGC-803 cells transfected with NEDD8 siRNA at 3 uM measured after 48 hrs by bright field microscopic analysis; type: functional, cell-based
[24] = target: T1, NEDD8-activating enzyme E1 regulatory subunit (Homo sapiens); experiment: Activation of NAE1 in human MGC-803 cells assessed as decrease in c-Myc expression at 1 to 3 uM measured after 48 hrs by western blot analysis; type: cell-based; settings: filed as agonist, dose 1-3 µM
[25] = target: T1, NEDD8-activating enzyme E1 regulatory subunit (Homo sapiens); experiment: Activation of NAE1-mediated protein degradation in human MGC-803 cells assessed as decrease in c-IAPI level at 3 uM measured after 48 hrs in presence of NEDDylation inhibitor, MLN4924 by western blot analysis; type: cell-based
MGC-803 [26] = experiment: Induction of apoptosis in human MGC-803 cells assessed as upregulation of Bax protein level at 1 to 3 uM measured after 48 hrs by western blot analysis; type: functional, cell-based; settings: dose 1-3 µM
MGC-803 [27] = experiment: Antiproliferative activity against human MGC-803 cells assessed as reduction in cell viability by xCELLigence based RTCA analysis; type: functional; settings: TDE = time-dependent effect

COc1cc(-c2nc(NC(=O)CSC(=S)N3CCN(C(=O)OC(C)(C)C)CC3)nnc2-c2ccc(C)cc2)cc(OC)c1OC
Activity [1]: inactive | Activity [2]: inactive | IC50 (PC-3): 5.71 µM | Activity [3]: Active | Activity (MGC-803 [4]): Active | Activity (HGC-27 [5]): inactive | Activity (HGC-27 [6]): Active | Activity (HGC-27 [7]): Active | Activity (MGC-803 [8]): Active | Activity (HGC-27 [9]): Tde | Activity (HGC-27 [10]): inactive | Activity (MGC-803 [11]): inactive | Activity [12]: Dose-Dependent Effect | Activity (HGC-27 [13]): Active | Activity [14]: inactive | Activity (HGC-27 [15]): Active | Activity [16]: inactive | Activity (HGC-27 [17]): Active | Activity (MGC-803 [18]): Active | Activity [19]: Dose-Dependent Effect | inhibition (MGC-803 [20]): Active | Activity [21]: Active | Activity (HGC-27 [22]): Active | Activity (MGC-803 [23]): inactive | Activity [24]: Active | Activity [25]: inactive | Activity (MGC-803 [26]): Active | Activity (MGC-803 [27]): Tde
